From US8258134B2, “Pyridazinone glucokinase activators” (Hoffmann-La Roche Inc., priority 2008, dated 2012)

biological target: T1, Recombinant human liver GK1 (GST-GK) (Homo sapiens, UniProt P35557); assay: Glucokinase in vitro assay (G6PDH-coupled NADH generation, OD340); assay type: biochemical; details: 5 mM D-glucose, 30° C., pH 7.1, 10% DMSO
T1 construct: made in house; host or cells: E. coli
T1 sequence (P35557 1-466 isoform P35557-2): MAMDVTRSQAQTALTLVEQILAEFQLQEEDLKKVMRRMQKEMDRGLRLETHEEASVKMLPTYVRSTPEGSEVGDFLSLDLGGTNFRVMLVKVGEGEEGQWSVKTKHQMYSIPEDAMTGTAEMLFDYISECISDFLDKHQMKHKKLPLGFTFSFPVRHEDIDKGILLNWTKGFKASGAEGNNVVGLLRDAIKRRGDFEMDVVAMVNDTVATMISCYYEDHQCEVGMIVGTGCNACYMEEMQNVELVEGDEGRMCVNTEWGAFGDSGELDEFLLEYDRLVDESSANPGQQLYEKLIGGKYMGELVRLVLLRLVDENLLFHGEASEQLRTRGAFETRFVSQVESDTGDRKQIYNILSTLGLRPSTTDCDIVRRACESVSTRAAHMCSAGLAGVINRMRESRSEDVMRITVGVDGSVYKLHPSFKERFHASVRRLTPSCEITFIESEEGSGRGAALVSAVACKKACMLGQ
Method: Glucokinase In Vitro Assay Protocol: Glucokinase (GK) was assayed by coupling the production of glucose-6-phosphate to the generation of NADH with glucose-6-phosphate dehydrogenase (G6PDH, 0.75-1 k units/mg; Boehringer Mannheim, Indianapolis, Ind.) from Leuconostoc mesenteroides as the coupling enzyme (Scheme 2):
Recombinant human liver GK1 was expressed in E. coli as a glutathione S-transferase fusion protein (GST-GK) [Liang et al, 1995] and was purified by chromatography over a glutathione-Sepharose 4B affinity column using the procedure provided by the manufacturer (Amersham Pharmacia Biotech, Piscataway, N.J.).
The assay was conducted at 30° C. in a flat bottom 96-well tissue culture plate from Costar (Cambridge, Mass.) with a final incubation volume of 120 μL. The incubation reaction contained the following: 25 mM Hepes buffer (pH 7.1), 25 mM KCl, 5 mM D-glucose, 1 mM ATP, 1.8 mM NAD, 2 mM MgCl2, 1 μM sorbitol-6-phosphate, 1 mM dithiothreitol, test drug or 10% DMSO, ˜7 units/ml G6PDH, and GK (see below). All organic reagents were >98% pure and were from Boehringer Mannheim with the exceptions of D-glucose and Hepes which were from Sigma Chemical Co, St Louis, Mo. Test compounds were dissolved in DMSO and were added to the incubation reaction minus GST-GK in a volume of 12 μL to yield a final DMSO concentration of 10%. This mix was pre-incubated in the temperature controlled chamber of a SPECTRAmax 250 microplate spectrophotometer (Molecular Devices Corporation, Sunnyvale, Calif.) for 10 minutes to allow temperature equilibrium and then the reaction was started by the addition of 20 μL GST-GK.
After addition of enzyme, the increase in optical density (OD) at 340 nm was monitored spectrophotometrically to determine the rate of change (OD340 per min). The GK activity (OD340/min) in control wells (10% DMSO minus GK activators) was compared with the activity in wells containing test GK activators, and the concentration of activator that produced a 50% increase in the activity of GK, i.e., the SC1.5, was calculated. The table below provides the in vitro glucokinase activity for the compounds in the Examples: […]

| Structure (SMILES) | SC1.5 average (concentration of activator that produced a 50% increase in the activity of GK) [µM] |
| --- | --- |
| COC(=O)c1ccc(NC(=O)C(CC2CCCC2)n2ncc(Oc3cccc4c3CCCC4)cc2=O)nc1 (centres unmarked) [Example 67, 6-{3-Cyclopentyl-2-[6-oxo-4-(5,6,7,8-tetrahydro-naphthalen-1-yloxy)-6H-pyridazin-1-yl]-propionylamino}-nicotinic acid methyl ester] | 0.132 |
| COC(=O)c1ccc(NC(=O)C(CC2CCCC2)n2ncc(Oc3ccccc3C)cc2=O)nc1 (centres unmarked) [Example 69, 6-[3-Cyclopentyl-2-(6-oxo-4-o-tolyloxy-6H-pyridazin-1-yl)-propionylamino]-nicotinic acid methyl ester] | 0.033 |
| CC(C)(O)Cn1ccc(NC(=O)[C@@H](CC2CCCC2)n2ncc(Oc3cccc(F)c3F)cc2=O)n1 [Example 31B, (R)-3-Cyclopentyl-2-[4-(2,3-difluoro-phenoxy)-6-oxo-6H-pyridazin-1-yl]-N-[1-(2-hydroxy-2-methyl-propyl)-1H-pyrazol-3-yl]-propionamide] | 15.901 |
| CC(C)CC(C(=O)Nc1ccn(C[C@@H](O)CO)n1)n1ncc(Oc2cccc3c2CCCC3)cc1=O (stereo partly drawn) [Example 110, 4-Methyl-2-[6-oxo-4-(5,6,7,8-tetrahydro-naphthalen-1-yloxy)-6H-pyridazin-1-yl]-pentanoic acid [1-((R)-2,3-dihydroxy-propyl)-1H-pyrazol-3-yl]-amide] | 0.29 |
| Cc1ncccc1Oc1cnn(C(CC2CCCC2)C(=O)Nc2ccn(CC(C)(C)O)n2)c(=O)c1 (centres unmarked) [Example 25, 3-Cyclopentyl-N-[1-(2-hydroxy-2-methyl-propyl)-1H-pyrazol-3-yl]-2-[4-(2-methyl-pyridin-3-yloxy)-6-oxo-6H-pyridazin-1-yl]-propionamide] | 1.773 |
| CC(C)(O)Cn1ccc(NC(=O)C(CC2CCCC2)n2ncc(Oc3ccccc3-c3ccccc3)cc2=O)n1 (centres unmarked) [Example 23, 2-[4-(Biphenyl-2-yloxy)-6-oxo-6H-pyridazin-1-yl]-3-cyclopentyl-N-[1-(2-hydroxy-2-methyl-propyl)-1H-pyrazol-3-yl]-propionamide] | 0.868 |
| CC(C)(O)Cn1ccc(NC(=O)[C@H](CC2CCOCC2)n2ncc(Oc3c(F)cccc3F)cc2=O)n1 [Example 43A, (S)-2-[4-(2,6-Difluoro-phenoxy)-6-oxo-6H-pyridazin-1-yl]-N-[1-(2-hydroxy-2-methyl-propyl)-1H-pyrazol-3-yl]-3-(tetrahydro-pyran-4-yl)-propionamide] | 0.148 |
| CC(C)(O)Cn1ccc(NC(=O)C(CC2CCCCC2)n2ncc(Oc3c(F)cccc3F)cc2=O)n1 (centres unmarked) [Example 51, 3-Cyclohexyl-2-[4-(2,6-difluoro-phenoxy)-6-oxo-6H-pyridazin-1-yl]-N-[1-(2-hydroxy-2-methyl-propyl)-1H-pyrazol-3-yl]-propionamide] | 0.087 |
| CC(C)(O)Cn1ccc(NC(=O)C(CC2CCCC2)n2ncc(Cc3c(F)cccc3F)cc2=O)n1 (centres unmarked) [Example 48, 3-Cyclopentyl-2-[4-(2,6-difluoro-benzyl)-6-oxo-6H-pyridazin-1-yl]-N-[1-(2-hydroxy-2-methyl-propyl)-1H-pyrazol-3-yl]-propionamide] | 1.495 |
| CC(C)(O)Cn1ccc(NC(=O)[C@@H](CC2CCCCC2)n2ncc(Oc3c(F)cccc3F)cc2=O)n1 [Example 51B, (R)-3-Cyclohexyl-2-[4-(2,6-difluoro-phenoxy)-6-oxo-6H-pyridazin-1-yl]-N-[1-(2-hydroxy-2-methyl-propyl)-1H-pyrazol-3-yl]-propionamide] | 0.838 |
| O=C(O)c1ccc(NC(=O)C(CC2CCCC2)n2ncc(Oc3cccc4c3CCCC4)cc2=O)nc1 (centres unmarked) [Example 72, 6-{3-Cyclopentyl-2-[6-oxo-4-(5,6,7,8-tetrahydro-naphthalen-1-yloxy)-6H-pyridazin-1-yl]-propionylamino}-nicotinic acid] | 0.098 |
| CC(C)CC(C(=O)Nc1ccn(CCO)n1)n1ncc(Oc2c(F)cccc2F)cc1=O (centres unmarked) [Example 59, 2-[4-(2,6-Difluoro-phenoxy)-6-oxo-6H-pyridazin-1-yl]-4-methyl-pentanoic acid [1-(2-hydroxy-ethyl)-1H-pyrazol-3-yl]-amide] | 0.576 |
| CCOc1ccc(F)c(Oc2cnn(C(CC(C)C)C(=O)Nc3ccn(C[C@@H](O)CO)n3)c(=O)c2)c1F (stereo partly drawn) [Example 120, 2-[4-(3-ethoxy-2,6-difluoro-phenoxy)-6-oxo-6H-pyridazin-1-yl]-4-methyl-pentanoic acid [1-((R)-2,3-dihydroxy-propyl)-1H-pyrazol-3-yl]-amide] | 0.18 |
| O=C(Nc1ccn(C[C@@H](O)CO)n1)C(CC1CCCC1)n1ncc(Oc2c(F)cccc2F)cc1=O (stereo partly drawn) [Example 105, 3-Cyclopentyl-2-[4-(2,6-difluoro-phenoxy)-6-oxo-6H-pyridazin-1-yl]-N-[1-((R)-2,3-dihydroxy-propyl)-1H-pyrazol-3-yl]-propionamide] | 0.072 |
| CC(C)(O)Cn1ccc(NC(=O)C(CC2CCCC2)n2ncc(Oc3cccc(F)c3F)cc2=O)n1 (centres unmarked) [Example 31, 3-Cyclopentyl-2-[4-(2,3-difluoro-phenoxy)-6-oxo-6H-pyridazin-1-yl]-N-[1-(2-hydroxy-2-methyl-propyl)-1H-pyrazol-3-yl]-propionamide] | 0.209 |
| COc1ccc(Oc2cnn(C(CC3CCCC3)C(=O)Nc3ccn(CC(C)(C)O)n3)c(=O)c2)cc1 (centres unmarked) [Example 15, 3-Cyclopentyl-N-[1-(2-hydroxy-2-methyl-propyl)-1H-pyrazol-3-yl]-2-[4-(4-methoxy-phenoxy)-6-oxo-6H-pyridazin-1-yl]-propionamide] | 1.025 |
| CC(C)(O)Cn1ccc(NC(=O)[C@@H](CC2CCOCC2)n2ncc(Oc3c(F)cccc3F)cc2=O)n1 [Example 43B, (R)-2-[4-(2,6-Difluoro-phenoxy)-6-oxo-6H-pyridazin-1-yl]-N-[1-(2-hydroxy-2-methyl-propyl)-1H-pyrazol-3-yl]-3-(tetrahydro-pyran-4-yl)-propionamide] | 7.536 |
| CC(C)(O)Cn1ccc(NC(=O)C(CC2CCCC2)n2ncc(Oc3cccc4cnccc34)cc2=O)n1 (centres unmarked) [Example 37, 3-Cyclopentyl-N-[1-(2-hydroxy-2-methyl-propyl)-1H-pyrazol-3-yl]-2-[4-(isoquinolin-5-yloxy)-6-oxo-6H-pyridazin-1-yl]-propionamide] | 0.566 |
| CC(C)(O)Cn1ccc(NC(=O)[C@H](CC2CCCC2)n2ncc(Oc3c(F)cccc3F)cc2=O)n1 [Example 36A, (S)-3-Cyclopentyl-2-[4-(2,6-difluoro-phenoxy)-6-oxo-6H-pyridazin-1-yl]-N-[1-(2-hydroxy-2-methyl-propyl)-1H-pyrazol-3-yl]-propionamide] | 0.034 |
| O=C(Nc1ccn(C[C@@H](O)CO)n1)C(CC1CCCCC1)n1ncc(Oc2c(F)cccc2F)cc1=O (stereo partly drawn) [Example 63, 3-Cyclohexyl-2-[4-(2,6-difluoro-phenoxy)-6-oxo-6H-pyridazin-1-yl]-N-[1-((R)-2,3-dihydroxy-propyl)-1H-pyrazol-3-yl]-propionamide] | 0.117 |
